Data: paper PMC8774682, “Inhibitory Mechanism of Baicalein on Acetylcholinesterase: Inhibitory Interaction, Conformational Change, and Computational Simulation” (Foods, 2022)
Where two headings read alike, the source gives them in different places.

How the values were obtained:
[1] = biological target: T1, AChE (Electrophorus electricus, UniProt O42275); assay: Time-course test of AChE inactivation kinetics; type: biochemical
T1 construct: purchased Sigma-Aldrich Co. (St. Louis, MO, USA)
Procedure: The kinetic process and rate constants for enzyme inactivation were determined through the time-course test. Baicalein with concentrations of 2, 4, 8, and 16 µM was used for analysing the time-course. Enzyme activity at each concentration was measured every 3 min for 0–30 min, every 6 min for 30–60 min, and then at 70 and 80 min.

[2] = biological target: T1, AChE; assay: Fluorescence quenching and synchronous fluorescence of AChE; type: binding
Procedure: A spectrofluorometer (model F-7000; Hitachi, Tokyo, Japan) containing a thermostat bath was used to measure the fluorescence spectra. The AChE solution (2.5 mL; 0.17 µM) was introduced into a 1.0 cm path length quartz cell, followed by titration through the successive addition of 2.0 mM of diluted baicalein solution (to obtain the concentration range of 0–16 µM). The well-mixed solutions were set aside for three min for equilibration purposes. The fluorescence spectra were measured in the 290–450 nm range, and the relevant excitation wavelength set was 280 nm at 25 °C, 31°C, and 37 °C. Excitation and emission bandwidths were 2.5 nm. In addition, synchronous fluorescence spectra for AChE with baicalein were conducted by fixing the interval of excitation and emission wavelength constants at 15 nm and 60 nm. Fluorescence data were amended according to our previous reports to erase the re-absorption possibility and the inner filter effects of UV absorption.
The binding constant (Ka) for the AChE–bacalein complex and the binding site number (n) were measured using Equation (3):(3) logF0−F/F=nlogKa−nlog1/(Qt)−(F0−F)(Pt)/F0
In general, four noncovalent interaction forces exist between small molecules and macromolecules, namely hydrogen bonds, van der Waals forces, electrostatic forces, and hydrophobic interactions. To identify the binding forces between bacalein and AChE, the thermodynamic parameters were measured following the Van’t Hoff equation:(4) logKa=−ΔH°/2.303RT+ΔS°/2.303R (5) ΔG°=ΔH°−TΔS° where Ka denotes the binding constant, and R represents the gas constant (8.314 J mol^−1 K^−1). The temperatures (T) used were 25 °C, 31 °C, and 37 °C.

[3] = tested on: PC12 cells; assay: Cytotoxicity in PC12 cells (MTT assay); type: cell-based; settings: 1–80 µM, 24 h
Procedure: PC12 cells were purchased from the NanJing KeyGen Biotech Co. Ltd. (Nanjing, China). These cells were cultivated in high-glucose DMEM supplemented with 10% FBS, 100 U/mL of penicillin and 100 µg/mL of streptomycin at 37 °C under a humidified 5% CO2 atmosphere. Baicalein was dissolved in DMSO to prepare a 5 mM stock solution and diluted with serum-free media before use. PC12 cells were seeded into a 96-well plate at the density of 2 × 10 ^4 cells/well (100 μL) and cultured for 24 h. Next, the medium was changed, and the cells were treated with baicalein at 0, 1, 10, 20, 40, and 80 µM. Each concentration had six replicate wells, and the culture was continued for 24 h. To determine the effect of baicalein on cell viability, 20 µL of MTT (5 mg/mL) was added to each well. After 4 h, the resulting formazan crystals were dissolved by adding 150 μL of DMSO for 10–15 min. The absorption (O.D.) of each hole at 570 nm wavelength was measured using an enzyme-labelled instrument (Varioskan LUX; Thermo Fisher Scientific, Waltham, MA, USA). Cell viability was expressed as the percentage of the control.

[4] = biological target: T1, AChE; assay: AChE activity assay (Ellman's method, modified); type: biochemical
Procedure: AChE (137 U/mg, Electrophorus electricus) was provided by Sigma-Aldrich Co. (St. Louis, MO, USA), and their stock solutions with 10 U/mL concentrations were prepared with 0.1 M phosphate-buffered saline (pH 7.6) and stored at −20 °C. Baicalein (purity ≥ 98%) was obtained from the National Institute for the Control of Pharmaceutical and Biological Products (Beijing, China) and dissolved in ethanol to prepare the stock solution (5 mM). 5,5-Dithiobis-(2-nitrobenzoic acid) (DTNB), acetylthiocholine iodide (ATCI), galathamine hydrobromide, and 3-(4, 5-dimethylthiazol-2-yl)-2,5-diphenyltetrazolium bromide (MTT) were provided by Aladdin Chemistry Co., Ltd. (Shanghai, China). Foetal bovine serum (FBS) was purchased from Gibco (Carlsbad, CA, USA). Dulbecco’s modified Eagle’s medium (DMEM), trypsin, and other cell culture reagents were purchased from Solarbio (Beijing, China). All remaining reagents were of analytical grade.
AChE activity was evaluated per Ellman’s method, albeit with a slight modification. Quartz cuvettes (3 mL) were utilised for measuring the assay mixture activity. Solutions containing varying amounts of baicalein, phosphate-buffered saline (0.1 M, pH 7.6), and 50 µL of AChE (2 U/mL, 3.4 × 10^−8 M) were cultivated in 30 min at 25 °C. After the pre-incubation period, 50 μL of 5, 5-dithiobis-(2-nitrobenzoic) acid (DNTB, 5 mM) was added. The reaction was then initiated with 50 μL of acetylthiocholine iodide (ATCI, 15 mM). The absorbance at 412 nm was monitored every 5 s with the TU−1901 dual-beam UV–Vis Spectrophotometer (Persee; Beijing, China). The samples were measured thrice, and the average value was considered. Enzyme activity without baicalein was identified to be 100%. […] Galantamine hydrobromide served as the positive control.

[5] = biological target: T1, AChE; assay: Kinetic analysis of the inhibitory type (Lineweaver–Burk plots, v vs. AChE plots); type: biochemical
Excerpt: The Lineweaver–Burk plots and Michaelis–Menten enzyme kinetics were applied to analyse the inhibitory type. For competitive type inhibition, the dynamic double reciprocal equation was used as follows:(1) 1/v=Km/vmax(1+(I) /Ki)1/(S)+1/vmax (2) Kmapp=Km(I)/Ki+Km where (I) and (S) denote the inhibitor and substrate concentrations, respectively; ν represents the enzyme reaction rate irrespective of the presence of baicalein; νmax is the maximum catalytic reaction rate; Ki, Km, and Kmapp stand for the inhibition constant, Michaelis−Menten constant, and apparent Michaelis constant, respectively.

[6] = biological target: T1, AChE; assay: Far-UV CD spectra, secondary structure of AChE; settings: c(AChE) = 0.75 µM
Procedure: Far-UV CD spectra were measured using a spectrometer (MOS 450 CD; Bio-Logic, Claix, France) with a 1.0 mm path length quartz cuvette. All the spectra were measured in the 200–240 nm range at 25 °C, and the associated scan speed was 60 nm min^−1. The AChE in the PBS was completely blended with baicalein at varying concentrations and then equilibrated for three min before CD measurements. The spectra were amended by subtracting the spectrum of the buffer with that of baicalein at the same concentration as the sample solution. Three scans were conducted, and the ellipticity in millidegrees indicated the results. The contents of the discrepant secondary structures (α-helix, β-sheet, β-turn, and random coil) from AChE were measured based on CD spectroscopic data following the online SELCON3 program (http://dichroweb.cryst.bbk.ac.uk/html/home.shtml. Accessed on: 18 August 2021).

[7] = Van't Hoff equation, 25, 31, 37 °C

T1 sequence (O42275 24-633): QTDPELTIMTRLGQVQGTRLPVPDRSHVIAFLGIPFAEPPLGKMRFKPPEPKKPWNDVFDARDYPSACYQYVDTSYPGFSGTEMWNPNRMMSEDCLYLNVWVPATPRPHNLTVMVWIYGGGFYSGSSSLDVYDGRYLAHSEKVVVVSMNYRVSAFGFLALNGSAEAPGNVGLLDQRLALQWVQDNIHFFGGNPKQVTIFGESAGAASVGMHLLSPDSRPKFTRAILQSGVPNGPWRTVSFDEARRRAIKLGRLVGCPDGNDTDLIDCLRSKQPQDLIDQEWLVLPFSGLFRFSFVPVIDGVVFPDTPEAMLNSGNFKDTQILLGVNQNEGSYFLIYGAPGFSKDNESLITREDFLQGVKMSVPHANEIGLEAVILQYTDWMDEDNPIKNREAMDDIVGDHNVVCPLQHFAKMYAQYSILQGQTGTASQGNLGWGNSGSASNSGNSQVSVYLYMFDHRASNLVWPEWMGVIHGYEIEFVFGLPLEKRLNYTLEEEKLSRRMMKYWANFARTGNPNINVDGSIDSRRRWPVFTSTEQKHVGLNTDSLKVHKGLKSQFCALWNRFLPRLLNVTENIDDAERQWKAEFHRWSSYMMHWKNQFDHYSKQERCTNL

Question: For `O=c1cc(-c2ccccc2)oc2cc(O)c(O)c(O)c12` [baicalein, 5,6,7-trihydroxyflavone], which “Inactivation rate constant k” value ([1]; baicalein 2 µM) is on record?
Answer: Its value is 1.48 ± 0.03 ×10^−4 s^−1.

Question: And the “Inactivation rate constant k” value ([1]; baicalein 4 µM)?
Answer: Its value is 2.42 ± 0.05 ×10^−4 s^−1.

Question: And the “Inactivation rate constant k” value ([1]; baicalein 8 µM)?
Answer: Its value is 4.01 ± 0.02 ×10^−4 s^−1.

Question: And the “Inactivation rate constant k” value ([1]; baicalein 16 µM)?
Answer: Its value is 5.18 ± 0.08 ×10^−4 s^−1.

Question: And the “bimolecular quenching constant Kq, magnitude order” value ([2]; 25-37 °C)?
Answer: The value was ~10^13 L mol^−1 s^−1.

Question: And the Kd ([2]; 25-37 °C, read-out: binding constant, order of magnitude)?
Answer: The Kd was about 100 µM.

Question: What about the “binding site number n” value ([2]; 25 °C) of the same compound?
Answer: The value was 0.88 ± 0.01.

Question: And the “quenching constant KSV” value ([2]; 25 °C)?
Answer: The value was 6.45 ± 0.02 ×10^4 L mol^−1.

Question: What about the “∆G°” value ([2]; 25 °C) of the same compound?
Answer: The value was -22.71 ± 0.06 kJ/mol.

Question: What about the Kd ([2]; 25 °C, read-out: binding constant Ka (converted)) of the same compound?
Answer: Its Kd is 15 µM.

Question: What about the “binding site number n” value ([2]; 31 °C) of the same compound?
Answer: The value was 0.93 ± 0.03.

Question: And the “quenching constant KSV” value ([2]; 31 °C)?
Answer: The value was 5.78± 0.03 ×10^4 L mol^−1.

Question: And the “∆G°” value ([2]; 31 °C)?
Answer: The value was -22.83 ± 0.03 kJ/mol.

Question: What about the Kd ([2]; 31 °C, read-out: binding constant Ka (converted)) of the same compound?
Answer: The Kd was 17.1 µM.

Question: And the “binding site number n” value ([2]; 37 °C)?
Answer: The value was 1.13 ± 0.02.

Question: What about the “quenching constant KSV” value ([2]; 37 °C) of the same compound?
Answer: Its value is 5.22± 0.07 ×10^4 L mol^−1.

Question: And the “∆G°” value ([2]; 37 °C)?
Answer: The value was -22.94 ± 0.08 kJ/mol.

Question: And the Kd ([2]; 37 °C, read-out: binding constant Ka (converted))?
Answer: The Kd was 19.6 µM.

Question: What about the “∆H°” value [2, 7] of the same compound?
Answer: Its value is -17.01 ± 0.02 kJ/mol.

Question: What about the “∆S°” value [2, 7] of the same compound?
Answer: The value was 19.15 ± 0.09 J mol^−1 K^−1.

Question: What about the “synchronous fluorescence quenching ratio RSFQ, Tyr residues” value ([2]; Δλ = 15 nm, baicalein up to 16.0 μM, c(AChE) = 0.17 µM) of the same compound?
Answer: Its value is 58.48%.

Question: What about the “synchronous fluorescence quenching ratio RSFQ, Trp residues” value ([2]; Δλ = 60 nm, baicalein up to 16.0 μM, c(AChE) = 0.17 µM) of the same compound?
Answer: Its value is 63.83%.

Question: What about the “cytotoxicity (cell viability, MTT)” value [3] of the same compound?
Answer: The value was “nontoxic”.

Question: And the IC50 [4]?
Answer: Its IC50 is 6.42 ± 0.07 µM.

Question: What about the inhibition at 26.7 µM ([4]; read-out: final inhibition rate of AChE activity) of the same compound?
Answer: The inhibition at 26.7 µM was 90%.

Question: What about the Ki ([5]; Lineweaver–Burk, baicalein 0, 4, 8, 10 µM, c(AChE) = 0.57 nM, read-out: Ki (inhibition constant)) of the same compound?
Answer: Its Ki is 4.32 ± 0.26 µM.

Question: And the inhibition type ([5]; double reciprocal plots intersect on the Y axis)?
Answer: Its inhibition type is “competitive”.

Question: And the inhibition reversibility ([5]; plots of v vs. AChE concentration, baicalein 0-16 µM)?
Answer: Its inhibition reversibility is “reversible”.

Question: What about the “Random coil content of AChE” value ([6]; molar ratio baicalein:AChE 2:1) of the same compound?
Answer: Its value is 25.36 ± 0.29%.

Question: And the “α-Helix content of AChE” value ([6]; molar ratio baicalein:AChE 2:1)?
Answer: The value was 38.82 ± 0.08%.

Question: What about the “β-Sheet content of AChE” value ([6]; molar ratio baicalein:AChE 2:1) of the same compound?
Answer: Its value is 14.57 ± 0.13%.

Question: What about the “β-Turn content of AChE” value ([6]; molar ratio baicalein:AChE 2:1) of the same compound?
Answer: The value was 21.42 ± 0.57%.

Question: What about the “Random coil content of AChE” value ([6]; molar ratio baicalein:AChE 6:1) of the same compound?
Answer: The value was 21.71 ± 0.47%.

Question: And the “α-Helix content of AChE” value ([6]; molar ratio baicalein:AChE 6:1)?
Answer: Its value is 42.53 ± 0.35%.

Question: What about the “β-Sheet content of AChE” value ([6]; molar ratio baicalein:AChE 6:1) of the same compound?
Answer: Its value is 7.73 ± 0.03%.

Question: And the “β-Turn content of AChE” value ([6]; molar ratio baicalein:AChE 6:1)?
Answer: Its value is 28.15 ± 0.89%.

Question: Which IC50 [4] does the source give for `O=C(O)[C@H]1O[C@@H](Oc2cc3oc(-c4ccccc4)cc(=O)c3c(O)c2O)[C@H](O)[C@@H](O)[C@@H]1O` [baicalin, reference compound] here?
Answer: The IC50 was 204 ± 16.5 µM.
